Read-outs that look alike come from different tables or passages of the source.
Key:
[1] = Rat oral pharmacokinetics (plasma); type: in vivo; conditions: 20-30 μmol/kg; for Vz_F / AUC(0-t): mean n = 3; for AUC(0-t) / Cmax / Tmax / half-life: male, CD Sprague Dawley; for Cmax: mean n = 3, read-out: Cmax; for Tmax: mean n = 3, read-out: Tmax; for half-life: mean n = 3, read-out: t½ (converted)
Method: Plasma (EDTA K2 anticoagulant) was collected from male, cannulated, CD Sprague Dawley rats to determine the pharmacokinetics of formulations containing compound inhibitors of Rho kinase. Each animal was dosed orally with a 4 ml/kg solution or suspension of each test compound in 10 mM acetate buffered saline, pH 4.5 at a final concentration range of 20-30 μmol/kg. Blood was collected at 0.25, 0.5, 1, 2, 4, 6, 8, and 24 hours. Plasma samples were assayed for the concentration of the test compound using an on-line, solid phase extraction LC/MS/MS analysis system.
Samples were analyzed on a QSTAR Elite, hybrid quadrupole time-of-flight mass spectrometer (Applied Biosystems, Framingham, Mass.) coupled with a Symbiosis Pharma integrated, on-line SPE-HPLC system (Spark Holland Inc., Plainsboro, N.J.). Analyst QS 2.0 software was used for instrument control, data acquisition and processing. […] Mobile Phase A consisted of 0.1% ammonium hydroxide in water and Mobile Phase B consisted of 0.1% formic acid in acetonitrile. Pharmacokinetic analyses were performed using WinNonlin software version 5.2 (Pharsight Corporation, Mountain View, Calif.).
As determined from the plasma concentration versus time curves, the time to peak and peak exposure are represented by the values Tmax and Cmax, respectively. The AUC values (nM*hr) shown were calculated as the areas under the plasma concentration versus time curves from time zero through the time of the last observable value and represent the total exposure of the compound over the course of the study. Half-life values or the amount of time required for the plasma levels of the compound to decline to half the initial value are represented as t½.

[2] = Compound concentrations in lungs of ova-sensitized, ova-challenged mice post IP, PO and IT administration; type: in vivo; conditions: male, Balb/c, mouse, lung, PO 15 μmol/kg, n = 9 or 10, read-out: Lung concentration (plasma corrected); for concentration at 3 h: BD model, time point 3 h
Method: Additionally, compound concentrations were determined in the plasma and lungs of male, ovalbumin-sensitized, Balb/c mice from a murine model of asthma. Test compounds were formulated in water or 1% polysorbate 80 and dosed at 15 μmol/kg for intraperitoneal (IP) or oral (PO) administration or formulated for intratracheal (IT) administration and dosed at 5 μmol/kg, which directly targets the lungs. Following completion of the in vivo study, mice were euthanized and blood and plasma collected approximately 2.5-3 hours post administration of test compound for bronchodialator (BD) studies and 24 hours post administration for anti-inflamatory (AI) studies. Lungs were homogenized in Matrix A lysing tubes using a FastPrep 24 tissue and cell homogenizer (MP Biomedicals, Solon, Ohio). Both plasma samples and lung extracts were assayed for compound concentrations using an on-line, solid phase extraction LC/MS/MS system. The actual lung tissue concentrations of each compound in mouse were extrapolated from the lung and plasma concentrations, data are shown in Table 11. The results of a set of experiments using unsensitized mice and collecting only plasma 15 minutes post administration of test compounds are shown in Table 12.

human neutrophils = assay: Human neutrophil chemotaxis induced by fMLP (modified Boyden chamber); type: cell-based
Procedure, shortened: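 Neutrophils from healthy volunteers' blood, isolated by Ficoll-paque centrifugation, dextran sedimentation and hypotonic red-cell lysis. Migration measured in a modified Boyden chamber (3 μm polycarbonate membrane) toward 1 μM fMLP for 1 h at 37° C., 5% CO2. Compounds tested in dose response.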

ROCK2 = target: T1, ROCK2 (Homo sapiens, UniProt O75116); assay: Rho kinase inhibition assay (IMAP fluorescence polarization), ROCK2; type: biochemical;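 further: kinase reaction started with 10 µM ATP and run 60 min at room temperature, then phosphorylated substrate captured on IMAP beads for 30 min and fluorescence polarization read in mP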
T1 construct: purchased Upstate/Chemicon 14-451
Method: (§2) Following the pre-incubation, 10 μM ATP was added to initiate the reaction. After 60 minutes at room temperature, Molecular Devices IMAP™ binding solution was added to bind phosphorylated substrate. After 30 minutes of incubation in the presence of the IMAP™ beads, the fluorescence polarization was read and the ratio was reported as mP. IC50 values for compounds and EC50 values for ATP were calculated using the Prism software from Graphpad.

ROCK1 = target: T2, ROCK1 (Homo sapiens, UniProt Q13464); assay: Rho kinase inhibition assay (IMAP fluorescence polarization), ROCK1; type: biochemical;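 further: kinase reaction run 60 min at room temperature, then phosphorylated substrate captured on IMAP beads for 30 min, with fluorescence polarization read in mP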
T2 construct: purchased Upstate/Chemicon 14-601
Method: as §2

[3] = test system: ova-sensitized, ova-challenged mice; assay: Prevention of airway hyperreactivity (Penh, methacholine) in mouse ovalbumin sensitization model; type: in vivo
Method: The anti-inflammatory dosing paradigm consists of dosing the animals once a day starting on day 27 and finishing on either day 30 or 31 (1 hr prior to the aerosolized ovalbumin challenges on days 28 to 30) but not on day 32 when hyperreactivity evaluation occurs. […] Exposure to the methacholine doses consisted of a 3 minute period during which a nebulizer was aerosolizing the methacholine and an additional 3 minute period following the cessation of nebulization. […] Enhanced pause (Penh), a unitless index of airway hyperreactivity, is derived from the expiratory side of the respiratory waveform measured via the plethysmograph and is used as an indirect measure of airway resistance and hyperreactivity. […] Following the methacholine dose response, BALF was collected and all animals were anesthetized, bled and euthanized. […] The Penh value at each of the dose levels of methacholine represents the 6-minute average response. Change from baseline (CFB) in Penh was calculated at each methacholine dose and the area under the curve (AUC) for these CFB values was calculated using the trapezoidal rule. This same approach was applied for each mouse across multiple experiments. […] Data from equal experimental conditions across experiments performed on different days were pooled for statistical analysis and data reporting. […] A random intercept for each experiment was assumed to account for possible similarities of the results obtained from a given experiment (i.e., as a “blocking effect”). […] For FIG. 9, linear AUC values from compound treated mice were reported as a percent of linear AUC values from vehicle-treated ovalbumin-sensitized/ovalbumin-challenged (asthmatic) mice.

p70S6K human enzyme = target: T3, p70S6K human enzyme (Homo sapiens, UniProt P23443, T412E); assay: p70S6K inhibition assay (IMAP FP); type: biochemical;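 further: kinase reaction run at room temperature, phosphorylated substrate captured on IMAP beads and read as fluorescence polarization in mP, IC50 then converted to Ki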
T3 construct: purchased Upstate Chemicon 14-486

[4] = test system: ova-sensitized, ova-challenged mice; assay: Mouse ovalbumin sensitization model, in vivo anti-inflammatory activity (BALF eosinophils and cytokines); conditions: dosed orally to day 31, anti-inflammatory dosing paradigm; FIG. 4
Method: Male BALB/c mice were ordered from Charles River Laboratories (Raleigh, N.C.). The animals were approximately 19 to 21 grams at time of receipt. Upon arrival, the animals were randomized into groups of five males per cage and assigned to a dosing group. Animals were quarantined for 7 days under test conditions. They were observed daily for general health status and ability to adapt to the water bottles. Animals were sensitized on day 0 and 14 of study by an intraperitoneal injection with 20 μg of ovalbumin (ova) and 2.0 mg aluminum hydroxide (alum) which initiates the development of a specific T-helper (Th) cells type 2 resulting in asthmatic animals (denoted as Ova in the figures). One group of animals received an injection of saline to use as control animals (denoted as normal in the figures). […] Aerosol challenge consists of using an Aerogen Aeroneb nebulizer and controller with a particle size of 4-6 μm mass median aerodynamic diameter (MMAD) with a distribution of 400 μl per minute. This aerosol challenge is necessary to target the Th2-driven allergic inflammation in the lower airways.
The anti-inflammatory dosing paradigm (FIG. 3) was utilized to evaluate the anti-inflammatory effects of experimental compounds. […] On day 32 of the experiment, after measurement of airway hyperreactivity, BALF was collected and all animals were anesthetized, bled and euthanized.
Bronchoalveolar lavage fluid (BALF) was collected by infusing 3.0 ml of saline with 10% fetal calf serum into the lungs via the trachea and then withdrawing the fluid. The total amount of cells/ml of BALF fluid was determined via manual cell count on hemocytometer. The BALF was centrifuged, supernatant removed and analyzed for cytokine concentrations as described below, and cell pellet reconstituted in 500 μL of fluid. Cytospin slides were prepared from the cell pellet using 100 μL of fluid and spinning samples for 5 minutes at 5000 rpms in a cytospin centrifuge. Following Hema3 stain, relative percentages of individual leukocytes were determined on a 200 cell count for each sample. The final concentration of individual leukocyte cell types per ml of BALF was determined by multiplication of the relative percentage of individual leukocytes with the total amount of cells/ml of BALF fluid.
The concentrations of cytokines in the BALF samples were determined using commercially available Bio-plex kits (Bio-Rad) for the detection of mouse IL-5, IL-13, and Eotaxin. The analysis of cytokine levels was measured using the Bio-Plex 200 (Bio-Rad) system according to the manufacturer's instructions.

Akt3 human enzyme = target: T4, Akt3 human enzyme (Homo sapiens, UniProt Q9Y243); assay: Akt3 inhibition assay (IMAP FP); type: biochemical;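 further: kinase reaction run 60 min at room temperature after 30 µM ATP start, phosphorylated substrate captured on IMAP beads and read as fluorescence polarization (mP)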
T4 construct: purchased Upstate Chemicon 14-502

[5] = Compound plasma concentrations in unsensitized mice at 15 min post administration; type: in vivo; conditions: mouse, 15 μmol/kg; mean compound plasma concentration in mice at 15 minutes post oral administration; read-out: Mouse Oral PK
[6] = test system: A-10 rat thoracic aorta cells; assay: PDGF-stimulated smooth muscle cell proliferation assay (BrdU incorporation); type: cell-based; conditions: A-10 cells, 10 ng/mL PDGF, BrdU incorporation, percent of total challenge-stimulated proliferation; for Percent of PDGF Induced Proliferation at 1 μM Avg: 1 μM test compound; for Percent of PDGF Induced Proliferation at 10 μM Avg: 10 μM test compound;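 on all read-outs here: cells kept in serum-free medium, BrdU allowed to incorporate for 24 h, then incorporated label detected fluorometrically with an anti-BrdU antibody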
ERK2 = target: T5, ERK2 (Homo sapiens, UniProt P28482); assay: Kinase panel screen (KinaseProfiler), ERK2; type: biochemical
T5 construct: purchased Upstate, Millipore Bioscience Division (KinaseProfiler service)
Method: (§1) Compounds of Formulae I and II were examined for activity against a selected panel of kinases using the KinaseProfiler™ enzyme profiling services (Upstate, Millipore Bioscience Division). Percent kinase activity at 10 μM and 1 μM test compound and 10 μM ATP was determined against 40 wild-type recombinant human kinases according to Upstate's standard protocol: ASK1, BTK, CSK, c-RAF, GCK, GSK3β, IKKα, IKKβ, IRAK1, IRAK4, JNK1α1, JNK2α2, JNK3, ERK1, ERK2, MAPKAP-K2, MAPKAP-K3, MEK1, MKK4, MKK6, MKK7β, Mnk2, MSK1, PAK3, PDK1, PRAK, ROCK1, Rsk2, SAPK2a, SAPK2b, SAPK3, SAPK4, SRPK1, SRPK2, Syk, TAK1, TBK1, PI3-Kβ, PI3-Kγ, PI3-Kδ.

Mnk2 = target: T6, Mnk2 (Homo sapiens, UniProt Q9HBH9); assay: Kinase panel screen (KinaseProfiler), Mnk2; type: biochemical; conditions: 10 μM ATP
T6 construct: purchased Upstate, Millipore Bioscience Division (KinaseProfiler service)
Method: as §1

IRAK4 = target: T7, IRAK4 (Homo sapiens, UniProt Q9NWZ3); assay: Kinase panel screen (KinaseProfiler), IRAK4; type: biochemical; conditions: 10 μM ATP
T7 construct: purchased Upstate, Millipore Bioscience Division (KinaseProfiler service)
T7 sequence (Q9NWZ3 1-460): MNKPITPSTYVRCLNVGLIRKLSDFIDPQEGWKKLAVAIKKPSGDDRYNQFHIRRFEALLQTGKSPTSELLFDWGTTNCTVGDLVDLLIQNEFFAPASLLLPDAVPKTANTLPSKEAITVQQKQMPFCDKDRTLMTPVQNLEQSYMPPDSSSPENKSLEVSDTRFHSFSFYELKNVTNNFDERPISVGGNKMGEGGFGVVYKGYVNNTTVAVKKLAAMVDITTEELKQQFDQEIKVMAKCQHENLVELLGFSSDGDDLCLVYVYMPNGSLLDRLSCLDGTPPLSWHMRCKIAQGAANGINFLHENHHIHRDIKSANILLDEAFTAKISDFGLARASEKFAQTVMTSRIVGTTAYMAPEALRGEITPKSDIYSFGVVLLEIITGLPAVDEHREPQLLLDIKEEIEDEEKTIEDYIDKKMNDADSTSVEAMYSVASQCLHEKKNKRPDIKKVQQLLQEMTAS
Method: as §1

IRAK1 = target: T8, IRAK1 (Homo sapiens, UniProt P51617); assay: Kinase panel screen (KinaseProfiler), IRAK1; type: biochemical; conditions: 10 μM ATP
T8 construct: purchased Upstate, Millipore Bioscience Division (KinaseProfiler service)
Method: as §1

GCK = target: T9, GCK (Homo sapiens, UniProt Q12851); assay: Kinase panel screen (KinaseProfiler), GCK; type: biochemical
T9 construct: purchased Upstate, Millipore Bioscience Division (KinaseProfiler service)
T9 sequence (Q12851 1-820): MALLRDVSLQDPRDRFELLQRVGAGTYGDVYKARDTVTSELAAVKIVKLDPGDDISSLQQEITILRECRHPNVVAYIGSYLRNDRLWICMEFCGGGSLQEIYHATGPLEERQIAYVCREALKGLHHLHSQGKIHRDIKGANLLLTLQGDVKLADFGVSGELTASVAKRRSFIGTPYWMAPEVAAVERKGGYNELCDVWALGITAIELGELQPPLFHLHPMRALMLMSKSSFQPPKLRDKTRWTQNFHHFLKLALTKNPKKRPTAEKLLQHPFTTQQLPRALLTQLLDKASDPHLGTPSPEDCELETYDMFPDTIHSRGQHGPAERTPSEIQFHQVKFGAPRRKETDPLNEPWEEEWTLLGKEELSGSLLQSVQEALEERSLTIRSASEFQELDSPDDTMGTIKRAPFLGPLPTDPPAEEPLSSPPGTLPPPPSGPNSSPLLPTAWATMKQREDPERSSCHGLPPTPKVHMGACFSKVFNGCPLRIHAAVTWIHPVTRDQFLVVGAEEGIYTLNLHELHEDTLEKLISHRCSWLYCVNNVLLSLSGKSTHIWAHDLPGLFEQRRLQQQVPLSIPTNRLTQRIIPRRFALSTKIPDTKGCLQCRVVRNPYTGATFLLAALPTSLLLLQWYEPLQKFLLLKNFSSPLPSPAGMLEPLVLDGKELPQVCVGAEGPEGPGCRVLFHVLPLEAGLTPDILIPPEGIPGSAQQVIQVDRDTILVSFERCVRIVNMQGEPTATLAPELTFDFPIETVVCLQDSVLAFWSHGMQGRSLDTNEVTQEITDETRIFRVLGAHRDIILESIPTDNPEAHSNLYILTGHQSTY
Method: as §1

ERK1 = target: T10, ERK1 (Homo sapiens, UniProt P27361); assay: Kinase panel screen (KinaseProfiler), ERK1; type: biochemical; conditions: 10 μM ATP
T10 construct: purchased Upstate, Millipore Bioscience Division (KinaseProfiler service)
Method: as §1

[7] = Neutrophil, 1 h, 1 μM fMLP challenge, one hour, read-out: Chemotaxis Avg. IC50
[8] = 10 μM ATP, read-out: ROCK2 Ki, Avg
[9] = 30 μM ATP, Ki=IC50/(1+([ATP Challenge]/EC50 ATP)), read-out: p70S6K Ki, Avg
[10] = average Ki, read-out: p70S6K Ki
[11] = 30 μM ATP, Ki=IC50/(1+([ATP Challenge]/EC50 ATP)), read-out: Akt3 Ki, Avg

T2 sequence (Q13464 17-535 limits assumed): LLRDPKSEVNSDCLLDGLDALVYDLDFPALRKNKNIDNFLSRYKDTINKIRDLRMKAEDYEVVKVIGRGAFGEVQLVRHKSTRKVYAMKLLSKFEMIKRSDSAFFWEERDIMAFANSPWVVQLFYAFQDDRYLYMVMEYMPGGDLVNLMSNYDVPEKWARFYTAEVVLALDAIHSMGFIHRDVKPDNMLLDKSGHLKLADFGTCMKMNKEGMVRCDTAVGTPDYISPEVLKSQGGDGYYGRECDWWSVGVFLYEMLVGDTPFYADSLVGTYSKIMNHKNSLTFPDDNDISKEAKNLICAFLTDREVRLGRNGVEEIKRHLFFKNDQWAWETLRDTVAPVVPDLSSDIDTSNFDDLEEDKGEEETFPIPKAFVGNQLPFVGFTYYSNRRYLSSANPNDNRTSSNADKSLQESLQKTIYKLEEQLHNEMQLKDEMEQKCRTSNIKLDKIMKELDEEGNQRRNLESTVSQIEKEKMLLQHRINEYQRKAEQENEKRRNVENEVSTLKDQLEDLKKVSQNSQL
T4 sequence (Q9Y243 whole entry): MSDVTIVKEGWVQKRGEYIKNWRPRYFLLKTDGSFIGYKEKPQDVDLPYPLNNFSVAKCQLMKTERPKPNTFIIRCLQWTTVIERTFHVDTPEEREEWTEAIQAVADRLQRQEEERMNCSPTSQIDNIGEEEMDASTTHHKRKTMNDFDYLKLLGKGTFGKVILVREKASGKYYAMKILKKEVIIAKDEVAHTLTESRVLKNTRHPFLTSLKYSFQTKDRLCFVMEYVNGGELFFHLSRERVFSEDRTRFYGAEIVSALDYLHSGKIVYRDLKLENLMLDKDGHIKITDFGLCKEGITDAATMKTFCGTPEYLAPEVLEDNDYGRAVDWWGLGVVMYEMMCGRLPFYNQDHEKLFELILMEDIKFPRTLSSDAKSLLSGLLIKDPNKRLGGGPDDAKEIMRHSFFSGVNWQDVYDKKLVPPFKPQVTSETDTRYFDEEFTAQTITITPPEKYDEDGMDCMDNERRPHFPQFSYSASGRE
T3 sequence (P23443 1-421 T412E limits assumed): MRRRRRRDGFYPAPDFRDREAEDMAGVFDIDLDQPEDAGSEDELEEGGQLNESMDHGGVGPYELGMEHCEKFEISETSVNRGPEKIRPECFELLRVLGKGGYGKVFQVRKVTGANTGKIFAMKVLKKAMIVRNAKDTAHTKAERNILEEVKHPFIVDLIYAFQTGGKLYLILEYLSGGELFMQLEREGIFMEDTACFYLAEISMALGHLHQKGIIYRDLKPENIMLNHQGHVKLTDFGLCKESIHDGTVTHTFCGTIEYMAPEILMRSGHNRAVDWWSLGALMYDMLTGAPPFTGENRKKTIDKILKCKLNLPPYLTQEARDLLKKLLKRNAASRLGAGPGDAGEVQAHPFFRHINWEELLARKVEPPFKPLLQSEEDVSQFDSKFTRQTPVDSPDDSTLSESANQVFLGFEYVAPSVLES
T1 sequence (O75116 11-552 limits assumed): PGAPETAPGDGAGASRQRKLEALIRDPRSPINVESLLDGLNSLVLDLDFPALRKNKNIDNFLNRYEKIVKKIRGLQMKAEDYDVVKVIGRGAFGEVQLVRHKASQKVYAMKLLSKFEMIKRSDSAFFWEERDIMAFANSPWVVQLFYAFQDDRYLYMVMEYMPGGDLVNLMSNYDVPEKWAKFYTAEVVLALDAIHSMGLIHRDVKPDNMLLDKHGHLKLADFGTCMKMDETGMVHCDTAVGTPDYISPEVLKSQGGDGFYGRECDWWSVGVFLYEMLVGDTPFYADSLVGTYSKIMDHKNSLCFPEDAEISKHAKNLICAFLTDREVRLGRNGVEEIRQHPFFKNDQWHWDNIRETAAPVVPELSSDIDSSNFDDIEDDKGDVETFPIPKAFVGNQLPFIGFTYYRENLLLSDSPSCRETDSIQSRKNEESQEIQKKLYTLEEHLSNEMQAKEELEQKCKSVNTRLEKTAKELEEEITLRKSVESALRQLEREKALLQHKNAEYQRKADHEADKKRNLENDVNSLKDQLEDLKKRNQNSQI
T6 sequence (Q9HBH9 whole entry): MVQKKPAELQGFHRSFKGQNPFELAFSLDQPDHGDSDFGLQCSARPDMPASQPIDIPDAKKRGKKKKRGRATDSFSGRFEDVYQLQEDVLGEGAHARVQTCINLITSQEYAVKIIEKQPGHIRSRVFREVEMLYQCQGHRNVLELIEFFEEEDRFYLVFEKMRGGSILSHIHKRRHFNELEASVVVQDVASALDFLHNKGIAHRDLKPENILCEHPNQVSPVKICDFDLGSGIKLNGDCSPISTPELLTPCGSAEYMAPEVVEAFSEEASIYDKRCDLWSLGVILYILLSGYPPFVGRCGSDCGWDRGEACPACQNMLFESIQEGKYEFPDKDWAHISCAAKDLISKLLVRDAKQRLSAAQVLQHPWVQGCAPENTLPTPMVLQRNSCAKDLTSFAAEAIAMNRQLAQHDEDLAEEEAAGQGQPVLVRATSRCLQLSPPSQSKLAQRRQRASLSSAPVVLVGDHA
T5 sequence (P28482 whole entry): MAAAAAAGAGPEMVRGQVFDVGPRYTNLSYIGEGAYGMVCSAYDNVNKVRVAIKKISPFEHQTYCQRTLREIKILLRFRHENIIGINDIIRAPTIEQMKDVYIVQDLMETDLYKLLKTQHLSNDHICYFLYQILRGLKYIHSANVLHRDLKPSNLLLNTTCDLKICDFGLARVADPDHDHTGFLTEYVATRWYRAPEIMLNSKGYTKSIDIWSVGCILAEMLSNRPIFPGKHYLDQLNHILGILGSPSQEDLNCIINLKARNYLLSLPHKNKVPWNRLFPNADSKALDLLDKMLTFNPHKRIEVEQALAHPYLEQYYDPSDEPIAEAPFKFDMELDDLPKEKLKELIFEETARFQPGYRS
T10 sequence (P27361 whole entry): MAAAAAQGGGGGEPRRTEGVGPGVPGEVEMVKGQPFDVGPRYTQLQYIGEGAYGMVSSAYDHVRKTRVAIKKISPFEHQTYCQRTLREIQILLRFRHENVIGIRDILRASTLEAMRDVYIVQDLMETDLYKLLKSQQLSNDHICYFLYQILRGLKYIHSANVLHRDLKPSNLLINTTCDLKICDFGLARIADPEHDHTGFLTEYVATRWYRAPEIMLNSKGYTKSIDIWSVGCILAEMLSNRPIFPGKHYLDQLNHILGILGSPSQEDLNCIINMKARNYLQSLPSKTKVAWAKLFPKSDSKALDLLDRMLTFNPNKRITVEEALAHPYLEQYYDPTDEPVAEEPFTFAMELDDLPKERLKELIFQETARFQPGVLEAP
T8 sequence (P51617 whole entry): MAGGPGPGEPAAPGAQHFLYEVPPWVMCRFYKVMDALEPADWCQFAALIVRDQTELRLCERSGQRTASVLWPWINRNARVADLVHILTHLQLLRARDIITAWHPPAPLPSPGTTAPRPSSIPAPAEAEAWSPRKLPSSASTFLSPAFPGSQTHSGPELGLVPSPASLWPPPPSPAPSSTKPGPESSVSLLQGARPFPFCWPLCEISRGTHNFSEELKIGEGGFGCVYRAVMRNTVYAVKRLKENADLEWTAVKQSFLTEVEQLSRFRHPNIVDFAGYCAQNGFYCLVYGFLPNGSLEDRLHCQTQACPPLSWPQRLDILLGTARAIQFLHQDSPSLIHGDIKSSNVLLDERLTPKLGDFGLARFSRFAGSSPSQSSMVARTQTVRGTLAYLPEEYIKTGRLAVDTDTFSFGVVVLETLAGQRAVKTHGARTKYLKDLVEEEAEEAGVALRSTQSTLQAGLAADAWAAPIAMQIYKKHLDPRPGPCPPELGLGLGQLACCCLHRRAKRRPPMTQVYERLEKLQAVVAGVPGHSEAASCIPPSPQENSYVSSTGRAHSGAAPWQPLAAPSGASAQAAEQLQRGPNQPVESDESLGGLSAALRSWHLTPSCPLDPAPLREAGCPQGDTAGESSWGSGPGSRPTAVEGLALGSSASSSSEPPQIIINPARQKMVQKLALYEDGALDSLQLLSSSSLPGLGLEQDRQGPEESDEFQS

| SMILES | Vz_F [1] [L/kg] | AUC(0-t) [1] [µM·h] | Cmax [1] [nM] | Tmax [1] [h] | half-life [1] [h] | concentration at 3 h [2] [nM] | IC50 (human neutrophils; [7]) [nM] | Ki (ROCK2; [8]) [nM] | Ki (ROCK1; Avg, 10 μM ATP) [nM] | Ki (p70S6K human enzyme; [9]) [nM] | Ki (p70S6K human enzyme; [10]) [nM] | Ki (ROCK2; average Ki, read-out: ROCK2 Ki) [nM] | Ki (Akt3 human enzyme; [11]) [nM] | Ki (Akt3 human enzyme; average Ki, read-out: Akt3 Ki) [nM] | concentration at 15 min [5] [nM] | Percent of PDGF Induced Proliferation at 1 μM Avg [6] [%] | Percent of PDGF Induced Proliferation at 10 μM Avg [6] [%] | Ki (ROCK1; average Ki) [nM] | also measured |
| --- | --- | --- | --- | --- | --- | --- | --- | --- | --- | --- | --- | --- | --- | --- | --- | --- | --- | --- | --- |
| OCCOc1cccc(CN2CCC[C@@H](Nc3ccc4[nH]ncc4c3)C2)c1 [Compound 1.092, (R)-2-(3-((3-(1H-indazol-5-ylamino)piperidin-1-yl)methyl)phenoxy)ethanol] | 19.0 | 1.85 | 2100 | 0.25 | 1.74 | 152 | 2750 | 28.4 | 191 | – | – | – | – | – | – | – | – | – | – |
| c1cc2cc(CN3CCC[C@@H](Nc4ccc5[nH]ncc5c4)C3)ccc2o1 [Compound 1.131, (R)-N-(1-(benzofuran-5-ylmethyl)piperidin-3-yl)-1H-indazol-5-amine] | 6.8 | 10.8 | 5610 | 0.83 | 1.55 | 7350 | 1590 | 3.8 | 19.7 | 503 | 503 | 3.8 | 283 | 283 | 445 | 61.7 | 36.6 | 19.7 | concentration at 24 h ([2]; AI model, time point 24 h): 33 nM; log10AUC (Penh) ([3]; 15 μmol/kg/oral, days 27 to 31): 2.0674; airway hyperreactivity to methacholine dosed on Day 32 ([3]; oral 15 μMol/kg once a day during days 27 to 31): prevention of airway hyperreactivity; Airway eosinophil infiltration (eosinophils per ml of BALF) [4]: reduced; IC50 (human neutrophils; average IC50 for inhibition of fMLP-induced neutrophil chemotaxis, read-out: Chemotaxis IC50): 1600 nM |
| NC(=O)Cn1ccc2cc(CN3CCC[C@@H](Nc4ccc5[nH]ncc5c4)C3)ccc21 [Compound 1.162, (R)-2-(5-((3-(1H-indazol-5-ylamino)piperidin-1-yl)methyl)-1H-indol-1-yl)acetamide] | – | – | – | – | – | – | – | 2.8 | 15.2 | 387 | 387 | 2.8 | 92 | 92 | 76 | 55.6 | 42.5 | 15.2 | ERK2 Percent inhibition, 1 μM (ERK2): 89%; ERK2 Percent inhibition, 10 μM (ERK2): 60%; activity at 1 µM (Mnk2; 1 μM test compound, read-out: Mnk2 Percent inhibition, 1 μM): 111%; activity at 10 µM (Mnk2; 10 μM test compound, read-out: Mnk2 Percent inhibition, 10 μM): 65%; activity at 1 µM (IRAK4; 1 μM test compound, read-out: IRAK4 Percent inhibition, 1 μM): 105%; activity at 10 µM (IRAK4; 10 μM test compound, read-out: IRAK4 Percent inhibition, 10 μM): 88%; activity at 1 µM (IRAK1; 1 μM test compound, read-out: IRAK1 Percent inhibition, 1 μM): 100%; activity at 10 µM (IRAK1; 10 μM test compound, read-out: IRAK1 Percent inhibition, 10 μM): 97%; GCK Percent inhibition, 1 μM (GCK): 93%; activity at 10 µM (GCK; 10 μM test compound, 10 μM ATP, read-out: GCK Percent inhibition, 10 μM): 75%; activity at 1 µM (ERK1; 1 μM test compound, read-out: ERK1 Percent inhibition, 1 μM): 84%; activity at 10 µM (ERK1; 10 μM test compound, read-out: ERK1 Percent inhibition, 10 μM): 50% |
